Drawing on patent US11884661B2, “3-substituted propionic acids as αV integrin inhibitors” (BRISTOL-MYERS SQUIBB COMPANY, priority 2016, dated 2024), this text covers IC50 for 26 molecules.

Broadly, the IC50 is the concentration that inhibits the measured activity by half.

The target in the assay is T1, human αVβ6 (Homo sapiens, UniProt P06756+P18564).
T1 construct: purchased R & D systems 3817-AV
T1 sequence (P06756 31-992 limits assumed): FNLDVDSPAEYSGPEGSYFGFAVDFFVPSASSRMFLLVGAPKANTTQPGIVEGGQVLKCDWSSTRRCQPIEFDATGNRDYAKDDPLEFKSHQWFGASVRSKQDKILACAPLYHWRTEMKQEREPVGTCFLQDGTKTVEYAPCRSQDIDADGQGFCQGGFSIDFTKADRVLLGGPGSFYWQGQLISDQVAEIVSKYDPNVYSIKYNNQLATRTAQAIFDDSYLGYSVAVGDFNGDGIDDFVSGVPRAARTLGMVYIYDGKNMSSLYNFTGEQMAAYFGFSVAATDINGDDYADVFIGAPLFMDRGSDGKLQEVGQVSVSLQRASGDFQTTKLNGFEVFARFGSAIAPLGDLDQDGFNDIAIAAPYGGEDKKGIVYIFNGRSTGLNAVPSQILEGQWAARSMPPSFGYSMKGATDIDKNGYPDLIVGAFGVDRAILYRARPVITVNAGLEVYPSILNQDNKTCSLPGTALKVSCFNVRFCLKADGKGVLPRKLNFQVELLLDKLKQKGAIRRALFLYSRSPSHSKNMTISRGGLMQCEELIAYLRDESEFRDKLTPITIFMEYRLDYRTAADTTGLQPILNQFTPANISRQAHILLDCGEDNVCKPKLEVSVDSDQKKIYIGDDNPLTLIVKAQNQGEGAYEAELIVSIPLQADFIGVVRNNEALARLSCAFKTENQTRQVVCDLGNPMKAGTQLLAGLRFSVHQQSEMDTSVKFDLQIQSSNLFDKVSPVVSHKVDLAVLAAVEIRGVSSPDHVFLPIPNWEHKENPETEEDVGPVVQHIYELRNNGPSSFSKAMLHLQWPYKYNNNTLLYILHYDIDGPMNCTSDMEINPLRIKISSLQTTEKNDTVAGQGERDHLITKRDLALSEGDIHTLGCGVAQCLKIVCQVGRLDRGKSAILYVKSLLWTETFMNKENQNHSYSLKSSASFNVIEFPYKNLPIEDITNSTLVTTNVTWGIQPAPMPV
T1 sequence (P18564 22-707 limits assumed): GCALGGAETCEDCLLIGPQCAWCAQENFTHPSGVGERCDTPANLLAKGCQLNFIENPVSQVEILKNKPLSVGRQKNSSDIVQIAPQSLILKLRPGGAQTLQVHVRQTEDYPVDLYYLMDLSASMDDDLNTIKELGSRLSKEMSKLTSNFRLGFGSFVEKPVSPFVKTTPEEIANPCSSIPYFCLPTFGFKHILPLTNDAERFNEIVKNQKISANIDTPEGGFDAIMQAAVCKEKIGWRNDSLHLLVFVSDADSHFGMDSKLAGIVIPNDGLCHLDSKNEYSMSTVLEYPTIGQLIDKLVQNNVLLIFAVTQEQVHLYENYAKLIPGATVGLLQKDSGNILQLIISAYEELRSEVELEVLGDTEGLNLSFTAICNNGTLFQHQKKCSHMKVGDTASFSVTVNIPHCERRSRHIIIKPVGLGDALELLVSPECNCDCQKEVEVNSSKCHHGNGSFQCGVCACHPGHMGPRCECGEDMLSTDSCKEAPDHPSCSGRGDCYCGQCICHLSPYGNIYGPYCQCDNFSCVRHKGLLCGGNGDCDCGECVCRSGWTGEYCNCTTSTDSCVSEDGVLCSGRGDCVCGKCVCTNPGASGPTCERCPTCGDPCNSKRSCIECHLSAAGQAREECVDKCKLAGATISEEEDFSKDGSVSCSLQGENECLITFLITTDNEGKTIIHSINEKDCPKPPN
In words: human αVβ6 HTRF binding assay. Particulars: recombinant human αVβ6 integrin, FITC-conjugated fibronectin. The procedure:
All binding assays used the HTRF (homogeneous time resolved fluorescence) technology from Cisbio International, therefore all assays are described as HTRF binding assays. The assay results for the Examples are listed above together with the characterization data. The HTRF binding assays are established for the following integrins: human αVβ6, human αVβ1, human αVβ3, human αVβ5, and human αVβ8. All assays used the following assay buffer: 20 mM Tris, pH 7.4, 1 mM MgCl2, 1 mM MnCl2, 0.01% Tween 20, and 0.01% BSA. Alternatively, a SPA-based assay was used for evaluation of receptor binding.
The following describes the components and a representative procedure for the human αVβ6 HTRF binding assay: Recombinant human αVβ6 Integrin (R & D systems, 3817-AV) was biotinylated. Biotinylated human αVβ6 Integrin was added to assay vessel at a final concentration of 1.25 nM. FITC-conjugated fibronectin (Cytoskeleton, FNR02) was then added at the final concentration of 5 nM. The mixture was centrifuged at 600 rpm for three minutes using Thermo Fisher Heraeus Multifuge X3 centrifuge and then incubated at RT for an hour. Streptavidin Terbium (Cisbio international 610STLB) was then added at the final concentration of 0.625 nM. The resulting mixture was centrifuged at 600 rpm for three minutes using Thermo Fisher Heraeus Multifuge X3 centrifuge and then incubated at room temperature overnight in dark before reading HTRF signals.
For orientation: TR-FRET usually uses a lanthanide donor and a delayed reading to cut background.
For the molecule `COc1ncc(C(CC(=O)O)n2ncc(CCCc3ccc4c(n3)NCCC4)n2)cn1` (single isomer, unassigned) [Example 176, 3-(2-methoxypyrimidin-5-yl)-3-(4-(3-(5,6,7,8-tetrahydro-1,8-naphthyridin-2-yl)propyl)-2H-1,2,3-triazol-2-yl)propanoic acid], the IC50 came out at 0.043 µM.

For `COc1ccc(C(CC(=O)O)n2ncc(CCCc3ccc4c(n3)NCCC4)n2)cc1F` (single isomer, unassigned) [Example 173, 3-(3-fluoro-4-methoxyphenyl)-3-(4-(3-(5,6,7,8-tetrahydro-1,8-naphthyridin-2-yl)propyl)-2H-1,2,3-triazol-2-yl)propanoic acid], the IC50 came to 0.003 µM.

Consider `O=C(O)CC(c1cc(Cl)cc(Cl)c1)c1cnn(CCCc2ccc3c(n2)NCCC3)c1` (racemic) [Example 26, (±)-3-(3,5-Dichlorophenyl)-3-(1-(3-(5,6,7,8-tetrahydro-1,8-naphthyridin-2-yl)propyl)-1H-pyrazol-4-yl)propanoic acid], for which the IC50 was 0.027 µM.

On to `O=C(O)C[C@@H](c1cnc(O)nc1)n1ccc(CCCc2ccc3c(n2)NCCC3)n1` [Example 85, (S)-3-(2-hydroxypyrimidin-5-yl)-3-(3-(3-(5,6,7,8-tetrahydro-1,8-naphthyridin-2-yl)propyl)-1H-pyrazol-1-yl)propanoic acid], for which the IC50 stood at 0.052 µM.

`CN(C)C(=O)c1ccc(C(CC(=O)O)c2nc(CCCCc3ccc4c(n3)NCCC4)cs2)cc1F` (single isomer, unassigned) [Example 131, 3-(4-(dimethylcarbamoyl)-3-fluorophenyl)-3-(4-(4-(5,6,7,8-tetrahydro-1,8-naphthyridin-2-yl)butyl)thiazol-2-yl)propanoic acid]: the IC50 came out at 0.0023 µM.

As to `O=C(O)C[C@@H](c1ccc(OCc2ccccc2)nc1)n1ccc(CCCc2ccc3c(n2)NCCC3)n1` [Example 110, (S)-3-(6-(benzyloxy)pyridin-3-yl)-3-(3-(3-(5,6,7,8-tetrahydro-1,8-naphthyridin-2-yl)propyl)-1H-pyrazol-1-yl)propanoic acid], the IC50 amounted to 0.0093 µM.

As to `Cc1ncc(C(CC(=O)O)n2ccc(CCCc3ccc4c(n3)NCCCC4)n2)cn1` (centres unmarked) [Example 98, 3-(2-methylpyrimidin-5-yl)-3-(3-(3-(6,7,8,9-tetrahydro-5H-pyrido[2,3-b]azepin-2-yl)propyl)-1H-pyrazol-1-yl)propanoic acid], the IC50 came to 0.595 µM.

For the molecule `CN(C)c1ccc(C(CC(=O)O)c2nc(CCCCc3ccc4c(n3)NCCC4)cs2)cn1` (single isomer, unassigned) [Example 121, 3-(6-(dimethylamino)pyridin-3-yl)-3-(4-(4-(5,6,7,8-tetrahydro-1,8-naphthyridin-2-yl)butyl)thiazol-2-yl)propanoic acid], the IC50 is 0.17 µM.

In the case of `CN(C)C(=O)c1cccc(C(CC(=O)O)c2nc(CCCCc3ccc4c(n3)NCCC4)cs2)c1` (single isomer, unassigned) [Example 117, 3-(3-(dimethylcarbamoyl)phenyl)-3-(4-(4-(5,6,7,8-tetrahydro-1,8-naphthyridin-2-yl)butyl)thiazol-2-yl)propanoic acid], the IC50 was found to be 0.076 µM.

In the case of `O=C(O)C[C@@H](c1ccc(=O)n(CC2CC2)c1)n1ccc(CCCc2ccc3c(n2)NCCC3)n1` [Example 111, (S)-3-(1-(cyclopropylmethyl)-6-oxo-1,6-dihydropyridin-3-yl)-3-(3-(3-(5,6,7,8-tetrahydro-1,8-naphthyridin-2-yl)propyl)-1H-pyrazol-1-yl)propanoic acid], the IC50 stood at 0.019 µM.

As for `COc1ncc([C@H](CC(=O)O)n2ccc(CCCc3ccc4c(n3)NCCC4)n2)cn1` [Example 82, (S)-3-(2-methoxypyrimidin-5-yl)-3-(3-(3-(5,6,7,8-tetrahydro-1,8-naphthyridin-2-yl)propyl)-1H-pyrazol-1-yl)propanoic acid], the IC50 was 0.0085 µM.

As to `COc1ccc(C(CC(=O)O)c2ccn(CCCc3ccc4c(n3)NCCC4)n2)cn1` (centres unmarked) [Example 113, 3-(6-methoxypyridin-3-yl)-3-(1-(3-(5,6,7,8-tetrahydro-1,8-naphthyridin-2-yl)propyl)-1H-pyrazol-3-yl)propanoic acid], the IC50 came to 0.035 µM.

As for `O=C(O)CC(c1cnc(N2CCC2)nc1)n1nccc1CCCc1ccc2c(n1)NCCC2` (racemic) [Example 53, (±)-3-(2-(Azetidin-1-yl)pyrimidin-5-yl)-3-(5-(3-(5,6,7,8-tetrahydro-1,8-naphthyridin-2-yl)propyl)-1H-pyrazol-1-yl)propanoic acid], the IC50 was found to be 0.14 µM.

As to `COc1ccc(C(CC(=O)O)n2ncc(CCCc3ccc4c(n3)NCCC4)n2)cn1` (single isomer, unassigned) [Example 170, 3-(6-methoxypyridin-3-yl)-3-(4-(3-(5,6,7,8-tetrahydro-1,8-naphthyridin-2-yl)propyl)-2H-1,2,3-triazol-2-yl)propanoic acid], the IC50 turned out to be 0.62 µM.

Turning to `COc1ncc([C@H](CC(=O)O)n2ccc(CCC[C@H]3CCc4cccnc4N3)n2)cn1` [Example 89, (S)-3-(2-methoxypyrimidin-5-yl)-3-(3-(3-((S)-1,2,3,4-tetrahydro-1,8-naphthyridin-2-yl)propyl)-1H-pyrazol-1-yl)propanoic acid], the IC50 turned out to be 0.1 µM.

On to `COc1ccc(C(CC(=O)O)c2csc(CCCc3ccc4c(n3)NCCC4)n2)cc1F` (single isomer, unassigned) [Example 152, 3-(3-fluoro-4-methoxyphenyl)-3-(2-(3-(5,6,7,8-tetrahydro-1,8-naphthyridin-2-yl)propyl)thiazol-4-yl)propanoic acid], for which the IC50 worked out at 0.18 µM.

For `COc1ccc(C(CC(=O)O)c2nc(CCCc3ccc4c(n3)NCCC4)co2)cc1F` (single isomer, unassigned) [Example 179, 3-(3-fluoro-4-methoxyphenyl)-3-(4-(3-(5,6,7,8-tetrahydro-1,8-naphthyridin-2-yl)propyl)oxazol-2-yl)propanoic acid], the IC50 was found to be 0.066 µM.

As for `O=C(O)CC(c1ccc2nccnc2c1)c1nc(CCCCc2ccc3c(n2)NCCC3)cs1` (single isomer, unassigned) [Example 120, 3-(quinoxalin-6-yl)-3-(4-(4-(5,6,7,8-tetrahydro-1,8-naphthyridin-2-yl)butyl)thiazol-2-yl)propanoic acid], the IC50 stood at 0.014 µM.

Regarding `COc1ccc(C(CC(=O)O)c2ncc(CCCCc3ccc4c(n3)NCCC4)n2C)cn1` (single isomer, unassigned) [Example 164, 3-(6-methoxypyridin-3-yl)-3-(1-methyl-5-(4-(5,6,7,8-tetrahydro-1,8-naphthyridin-2-yl)butyl)-1H-imidazol-2-yl)propanoic acid], the IC50 is 0.46 µM.

For the molecule `COc1ccc(C(CC(=O)O)c2ncc(CCCCc3ccc4c(n3)NCCC4)s2)cn1` (single isomer, unassigned) [Example 17, 3-(6-Methoxypyridin-3-yl)-3-(5-(4-(5,6,7,8-tetrahydro-1,8-naphthyridin-2-yl)butyl)thiazol-2-yl)propanoic acid], the IC50 was 0.016 µM.

In the case of `O=C(O)C[C@H](c1cnc2c(c1)OCCO2)n1ccc(CCCc2ccc3c(n2)NCCC3)n1` [Example 52, (R)-3-(2,3-Dihydro-[1,4]dioxino[2,3-b]pyridin-7-yl)-3-(3-(3-(5,6,7,8-tetrahydro-1,8-naphthyridin-2-yl)propyl)-1H-pyrazol-1-yl)propanoic acid], the IC50 came to 0.73 µM.

Consider `COc1ccc(C(CC(=O)O)c2nc(CCCC3CCc4cccnc4N3)cs2)cc1F` (single isomer, unassigned) [Example 161, 3-(3-fluoro-4-methoxyphenyl)-3-(4-(3-(1,2,3,4-tetrahydro-1,8-naphthyridin-2-yl)propyl)thiazol-2-yl)propanoic acid], for which the IC50 was 0.012 µM.

As for `COc1ccc(C(CC(=O)O)c2ncc(CCCCc3ccc4c(n3)NCCC4)n2C)cc1F` (single isomer, unassigned) [Example 166, 3-(3-fluoro-4-methoxyphenyl)-3-(1-methyl-5-(4-(5,6,7,8-tetrahydro-1,8-naphthyridin-2-yl)butyl)-1H-imidazol-2-yl)propanoic acid], the IC50 was found to be 0.28 µM.

`O=C(O)CC(c1cncc(N2CCOCC2)c1)n1nccc1CCCc1ccc2c(n1)NCCC2` (single isomer, unassigned) [Example 95, 3-(5-morpholinopyridin-3-yl)-3-(5-(3-(5,6,7,8-tetrahydro-1,8-naphthyridin-2-yl)propyl)-1H-pyrazol-1-yl)propanoic acid]: the IC50 is 0.23 µM.

As for `O=C(O)CC(c1cnc2nccnc2c1)n1ccc(CCCc2ccc3c(n2)NCCC3)n1` (racemic) [Example 33, (±)-3-(Pyrido[2,3-b]pyrazin-7-yl)-3-(3-(3-(5,6,7,8-tetrahydro-1,8-naphthyridin-2-yl)propyl)-1H-pyrazol-1-yl)propanoic acid], the IC50 amounted to 2.8 µM.

For `COc1cnc(C(CC(=O)O)n2nccc2CCCc2ccc3c(n2)NCCC3)cn1` (racemic) [Example 60, (±)-3-(5-Methoxypyrazin-2-yl)-3-(5-(3-(5,6,7,8-tetrahydro-1,8-naphthyridin-2-yl)propyl)-1H-pyrazol-1-yl)propanoic acid], the IC50 stood at 0.5 µM.
